According to ChEMBL document CHEMBL4138126, “Synthesis, antiproliferative, anti-tubulin activity, and docking study of new 1,2,4-triazoles as potential combretastatin analogues” (Eur J Med Chem, 2017):

Experiments:
Assay type in all cases: functional
[1] = test system: HepG2; assay: Induction of apoptosis in human HepG2 cells assessed as viable cells level at 1.41 uM by Annexin V and propidium iodide staining based flow cytometry
[2] = test system: HepG2; assay: Induction of apoptosis in human HepG2 cells assessed as early apoptotic cells level at 1.41 uM by Annexin V and propidium iodide staining based flow cytometry
[3] = test system: HepG2; assay: Induction of apoptosis in human HepG2 cells assessed as necrotic cells level at 1.41 uM by Annexin V and propidium iodide staining based flow cytometry
[4] = test system: HepG2; assay: Induction of cell cycle arrest in human HepG2 cells assessed as accumulation at G1 phase at cytotoxic IC50 by propidium iodide staining based flow cytometry (reference value: 66.4%)
[5] = test system: HepG2; assay: Induction of cell cycle arrest in human HepG2 cells assessed as accumulation at S phase at cytotoxic IC50 by propidium iodide staining based flow cytometry (reference value: 25.2%)
[6] = test system: HepG2; assay: Induction of cell cycle arrest in human HepG2 cells assessed as accumulation at G2 phase at cytotoxic IC50 by propidium iodide staining based flow cytometry (reference value: 7.2%)

## CCOc1ccc(-n2nc(C(=O)NCc3cc(F)cc(F)c3)nc2-c2cc(OC)c(OC)c(OC)c2)cc1
[1]
  Activity: 62%
[2]
  Activity: 21%
[3]
  Activity: 3%
[4]
  Activity: 35.4%
[5]
  Activity: 26.3%
[6]
  Activity: 21.6%
